The test system of series [1] is luciferase (Luc) mRNA. As to the kind of experiment: Luc expression in liver, lung, spleen and femur 6 hours after intravenous administration. As to conditions: mice, 0.5 mpk; for Total Flux Liver / Total Flux Lung / Total Flux Spleen: intravenous. Format: in vivo. Summed up: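 LNP-formulated mRNA given IV to mice (n=3) at 0.5 mpk; at 6 h, bioluminescence imaged ex vivo 15 min after IP D-luciferin (15 mg/mL, 200 μL), organs imaged within 25 min. Values are total flux by region of interest.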

Series [2] concerns luciferase (Luc) mRNA. Kind of series: Luc expression (total flux) after intramuscular administration. It is filed as in vivo, mice. The conditions noted are these: for AUC (p/s * h) / Lipid/MC3 AUC: Table 3H, Luc; for AUC (p/s * h) / Lipid/MC3 AUC / Novel lipid/MC3 expression ratio, 6 hr. time point, i.m. Luc: intramuscular; for Novel lipid/MC3 expression ratio, 6 hr. time point, i.m. Luc: relative to MC3 formulation; for Total flux (p/s) 0.01 mpk Dose: Table 5B; for Total flux (p/s) 0.01 mpk Dose / Total flux, 0.001 mpk Dose / Total flux, 0.01 mpk Dose: 6 hours after intramuscular administration; for Total flux, 0.001 mpk Dose / Total flux, 0.01 mpk Dose: Luc mRNA and H10 mRNA. The essentials: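 Total-flux luciferase signal in mice after one intramuscular injection. Nanoparticle formulations contained modified Luc mRNA, either alone or co-dosed with H10 mRNA (e.g., 0.0005 or 0.005 mpk of each), giving 0.001 or 0.01 mpk.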

A short description of series [3]: Apparent (surface) pKa of the LNP formulation (TNS assay). It is filed as physicochemical. As to conditions: for pKa: Table 1A; for Apparent pKa: Table 3G. The essentials:
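Fluorescence of TNS probe added to LNP samples (mRNA 0.04 mg/mL) was read across 21 buffers of pH about 3-12, triplicate per pH. The inflection point of the sigmoidal fluorescence-vs-pH curve, […], gives apparent pKa; method validated in 1× PBS and Tris/sucrose buffer.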

Series [4] is described as follows: Particle size and polydispersity index of nanoparticle compositions (Zetasizer Nano ZS). It is filed as physicochemical. The essentials: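 Values are size and PDI readings from a Zetasizer Nano ZS. Measurements are taken in 1×PBS; zeta potential, by contrast, uses 15 mM PBS.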
Where [5] appears, read: Table 1A, lipid:DSPC:cholesterol:PEG-DMG 50:10:38.5:1.5 mol %.
Where [6] appears, read: Table 1C, compositions for subcutaneous administration.
[7] abbreviates: Table 1B, formulated with hEPO mRNA.
The mark [8] stands for this setting: Table 1D, for subcutaneous administration, # formulated with hEPO mRNA.
Where [9] appears, read: Table 1E, compositions for subcutaneous administration.

The results in this text go back to US12263248B2, “Compounds and compositions for intracellular delivery of therapeutic agents” (ModernaTX, Inc., priority 2018, dated 2025).

The term pKa denotes the pH at which an ionisable group is half protonated. Take `CCCCCCCCC(CC)OC(=O)CCCCCN(CCO)CCCCCCCC(=O)OC(CCCCCCCC)CCCCCCCC` (stereo not shown) [Compound 75, Heptadecan-9-yl 8-((2-hydroxyethyl)(6-oxo-6-(undecan-3-yloxy)hexyl)amino)octanoate]: in series [1], the “Total Flux Liver” value is 1.45E+09, the “Total Flux Lung” value is 3.92E+06 and the “Total Flux Spleen” value stood at 5.66E+06. Besides, in series [2], the “AUC (p/s * h)” value was 1.29E+09 p/s * h; the “Lipid/MC3 AUC” value was determined as 2.20; the “Novel lipid/MC3 expression ratio, 6 hr. time point, i.m. Luc” value (shortened to “Novel lipid/MC3 expression ratio”) is 1.22. The pKa in series [3] was 6.67. In series [4] (Table 1A), this compound yielded a PDI of 0.17. In series [4] (setting [5]), the “Size (nm)” value is reported as 92.1 nm. Further, in series [4] (setting [6]), the PDI turned out to be 0.13 and the “Size (nm)” value is listed as 88.6 nm.

On to `CCCCCCCCCOC(=O)CCCCCCCN(CCCCCCCC(=O)OC(CCCCCCCC)CCCCCCCC)CCCNC(=S)NC` [Compound 113, Heptadecan-9-yl 8-((3-(3-methylthioureido)propyl)(8-(nonyloxy)-8-oxooctyl)amino)octanoate], for which, in series [1], the “Total Flux Liver” value worked out at 1.11E+09, the “Total Flux Lung” value amounted to 5.55E+06 and the “Total Flux Spleen” value turned out to be 5.22E+07. Further, in series [2], the “AUC (p/s * h)” value was 1.01E+09 p/s * h; the “Lipid/MC3 AUC” value amounted to 1.71; the “Novel lipid/MC3 expression ratio” value stood at 1.58. The pKa in series [3] was 6.93. The compound further came in with a PDI in series [4] (Table 1A) of 0.13. The “Size (nm)” value in series [4] (setting [5]) is reported as 86.8 nm. Also, in series [4] (setting [6]), the PDI came out at 0.14 and the “Size (nm)” value was determined as 83.9 nm.

On to `CCCCCCCCCOC(=O)CCCCCCCN(CCO)CCCCCCCCCC(=O)OC(CCCCCC)CCCCCC` [Compound 147, Tridecan-7-yl 10-((2-hydroxyethyl)(8-(nonyloxy)-8-oxooctyl)amino)decanoate], for which, in series [1], the “Total Flux Liver” value is listed as 5.24E+09, the “Total Flux Lung” value was 6.73E+06 and the “Total Flux Spleen” value was determined as 8.57E+07. Further, the pKa in series [3] came to 6.66. For the same compound, the PDI in series [4] (Table 1A) was found to be 0.130. The “Size (nm)” value in series [4] (setting [5]) came out at 99.5 nm. In series [4] (setting [7]), the PDI is 0.22 and the “Size (nm)” value was found to be 111.9 nm.

`CCCC/C=C\CCC(CC/C=C\CCCC)OC(=O)CCCCCCCN(CCO)CCCCCCCC(=O)OCCCCCCCCC` [Compound 60, (5Z,12Z)-Heptadeca-5,12-dien-9-yl 8-((2-hydroxyethyl)(8-(nonyloxy)-8-oxooctyl)amino)octanoate]: the “Total Flux Liver” value in series [1] is 1.54E+09. In addition, the “Total Flux Lung” value in series [1] was determined as 6.25E+06. Also, the “Total Flux Spleen” value in series [1] is reported as 7.12E+06. In series [2] (0.01 mpk), the “Total flux (p/s) 0.01 mpk Dose” value is 9.48E+07 p/s. The “Novel lipid/MC3 expression ratio” value in series [2] was 2.93. Besides, the pKa in series [3] was 6.73. Moreover, the PDI in series [4] (Table 1A) is given as 0.12; in series [4] (setting [7]) it was 0.15; in series [4] (setting [8]) it was 0.13; in series [4] (setting [9]), 0.12. Further, the “Size (nm)” value in series [4] (setting [5]) is recorded as 95.1 nm; in series [4] (setting [7]), 88.9 nm; in series [4] (setting [8]), 87.4 nm; in series [4] (setting [9]) it was 93.3 nm.

As for `CCCCCCCCC(CC)OC(=O)CCCN(CCO)CCCCCCCC(=O)OC(CCCCCCCC)CCCCCCCC` (stereo not shown) [Compound 72, Heptadecan-9-yl 8-((2-hydroxyethyl)(4-oxo-4-(undecan-3-yloxy)butyl)amino)octanoate], in series [1], the “Total Flux Liver” value was 7.97E+08, the “Total Flux Lung” value is given as 1.05E+07 and the “Total Flux Spleen” value is 6.40E+06. For the same compound, in series [2], the “AUC (p/s * h)” value is 6.48E+08 p/s * h; the “Lipid/MC3 AUC” value is on record as 1.10; the “Novel lipid/MC3 expression ratio” value came to 1.03. In series [3], the pKa is reported as 6.29. In series [4] (Table 1A), this compound showed a PDI of 0.10. Moreover, the “Size (nm)” value in series [4] (setting [5]) was 76.8 nm. Also, in series [4] (setting [6]), the PDI is listed as 0.10 and the “Size (nm)” value came to 77.3 nm.

Consider `CCCCCCCCC(C)OC(=O)CCCCCCCN(CCO)CCCCCCCC(=O)OC(CCCCCCCC)CCCCCCCC` (stereo not shown) [Compound 48, decan-2-yl 8-((8-(heptadecan-9-yloxy)-8-oxooctyl)(2-hydroxyethyl)amino)octanoate], for which, in series [1] (i.v., in words), the “Flux in the liver” value is recorded as “highest” and the “Flux in the spleen” value was “highest”. Further, in series [1], the “Total Flux Liver” value was determined as 1.08E+10, the “Total Flux Lung” value amounted to 3.31E+07 and the “Total Flux Spleen” value is recorded as 3.49E+08. Also, the “Total flux, 0.001 mpk Dose” value in series [2] is listed as 4.69E+05 p/s. The “Total flux, 0.01 mpk Dose” value in series [2] (0.01 mpk) turned out to be 8.78E+06 p/s. In addition, the pKa in series [3] was 6.68. This compound came in with a PDI in series [4] (Table 1A) of 0.092. Further, the “Size (nm)” value in series [4] (setting [5]) turned out to be 82.3 nm. Further, in series [4] (setting [8]), the PDI worked out at 0.09 and the “Size (nm)” value is 79.8 nm. This compound also showed a PDI in series [4] (nanoparticle composition with hEPO mRNA (Table 30)) of 0.176. In series [4] (nanoparticle composition with hEPO mRNA, standard MC3 formulation (Table 30)), this compound registered a Size of 70.6 nm.

For `CCCCCCCCC(C)OC(=O)CCCCCN(CCO)CCCCCCCC(=O)OC(CCCCCCCC)CCCCCCCC` (stereo not shown) [Compound 122, Heptadecan-9-yl 8-((6-(decan-2-yloxy)-6-oxohexyl)(2-hydroxyethyl)amino)octanoate], in series [1], the “Total Flux Liver” value was determined as 2.63E+09, the “Total Flux Lung” value amounted to 2.77E+07 and the “Total Flux Spleen” value is 1.56E+07. In addition, the “Total flux (p/s) 0.01 mpk Dose” value in series [2] (0.01 mpk) came to 9.19E+07 p/s. The “Novel lipid/MC3 expression ratio” value in series [2] came to 2.84. In addition, in series [3], the pKa came to 6.83 and the “Apparent pKa” value is reported as 6.83. Besides, in series [4] (Table 1A), the PDI came to 0.09. Also, the “Size (nm)” value in series [4] (setting [5]) was 69.3 nm. Further, in series [4] (setting [7]), the PDI is 0.12 and the “Size (nm)” value is on record as 70.2 nm. In series [4] (setting [6]), the PDI is given as 0.16 and the “Size (nm)” value came out at 80.2 nm.

For `CCCCCCCCCOC(=O)CCCCCCCN(CCCCCCCC(=O)OC(CCCCCCCC)CCCCCCCC)CCCNC(=O)N(C)C` [Compound 110, Heptadecan-9-yl 8-((3-(3,3-dimethylureido)propyl)(8-(nonyloxy)-8-oxooctyl)amino)octanoate], in series [1], the “Total Flux Liver” value amounted to 2.30E+08, the “Total Flux Lung” value turned out to be 5.76E+06 and the “Total Flux Spleen” value stood at 1.41E+08. For the same compound, the “Total flux (p/s) 0.01 mpk Dose” value in series [2] (0.01 mpk) came out at 1.21E+08 p/s. Besides, the “Novel lipid/MC3 expression ratio” value in series [2] came out at 3.74. Besides, in series [3], the pKa is reported as 8.03 and the “Apparent pKa” value amounted to 8.03. The compound further showed a PDI in series [4] (Table 1A) of 0.21. In addition, in series [4] (setting [5]), the “Size (nm)” value stood at 91.5 nm. In series [4] (setting [7]), the PDI is on record as 0.24 and the “Size (nm)” value is recorded as 73.3 nm. Further, in series [4] (setting [6]), the PDI amounted to 0.21 and the “Size (nm)” value is reported as 91.5 nm.

For the compound `CCCCCCCCCOC(=O)CCCCCCCN(CCCCCCCC(=O)OC(CCCCCCCC)CCCCCCCC)CCCNC(=S)N(C)C` [Compound 111, Heptadecan-9-yl 8-((3-(3,3-dimethylthioureido)propyl)(8-(nonyloxy)-8-oxooctyl)amino)octanoate], the “Total Flux Liver” value in series [1] was determined as 4.83E+09. Besides, the “Total Flux Lung” value in series [1] is 2.57E+07. For the same compound, the “Total Flux Spleen” value in series [1] worked out at 2.44E+08. The “i.m. Lipid/MC3 0.01 mpk, Luc, 6 h” value in series [2] (Table 3B, i.m., 0.01 mpk, 6 h) was 4.9. In addition, the “Total flux (p/s) 0.01 mpk Dose” value in series [2] (0.01 mpk) turned out to be 1.58E+08 p/s. In addition, in series [2], the “Novel lipid/MC3 expression ratio” value came out at 4.88. The pKa in series [3] turned out to be 7.13. Moreover, the PDI in series [4] (Table 1A) is reported as 0.22; in series [4] (setting [7]), 0.13; in series [4] (setting [8]), 0.12; in series [4] (setting [9]) it was 0.16. In addition, the “Size (nm)” value was found to be 116.7 nm in series [4] (setting [5]), 93.3 nm in series [4] (setting [7]), 94.5 nm in series [4] (setting [8]) and 88.9 nm in series [4] (setting [9]).

In the case of `CCCCCCCCC(CCC)OC(=O)CCCCCCCN(CCO)CCCCCCCC(=O)OC(CCCCCCCC)CCCCCCCC` (stereo not shown) [Compound 50, dodecan-4-yl 8-((8-(heptadecan-9-yloxy)-8-oxooctyl)(2-hydroxyethyl)amino)octanoate], in series [1], the “Total Flux Liver” value was found to be 6.30E+09, the “Total Flux Lung” value is on record as 2.81E+07 and the “Total Flux Spleen” value turned out to be 1.14E+08. In series [2], the “Total flux, 0.001 mpk Dose” value is on record as 6.56E+05 p/s. For the same compound, the “Total flux, 0.01 mpk Dose” value in series [2] (0.01 mpk) was determined as 1.13E+07 p/s. Also, the pKa in series [3] turned out to be 6.42. Also, in series [4] (Table 1A), the PDI is 0.100. Further, the “Size (nm)” value in series [4] (setting [5]) turned out to be 68.4 nm.
